{"source": "PubChem BioAssay (NCI)", "note": "“And” between values parts separate entries of the source, which are not always exact repeats. Equal entries are not always repeated.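 Where inhibition never reached the appropriate level, the endpoint shown equals the highest concentration tested. Otherwise, values were interpolated linearly from a five-concentration, 48-hour dose response in 96-well plates. GI50 is the concentration that inhibits growth by half. TGI is the concentration that stops growth completely.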", "data": [{"system": "SF-295 CNS", "test": "NCI tumour cell line growth inhibition, 48 h", "units": {"TGI": "µM", "GI50": "µM"}, "values": [{"smiles": "CC(C)C(CCl)NC(=O)c1cccc(C(=O)N[C@H](CCl)C(C)C)n1", "note": "(stereo in doubt)", "TGI": "> 100"}, {"smiles": "CCC(=O)CC(=O)CCC(=O)Nc1cc(C)ccc1C", "TGI": "> 100"}, {"smiles": "C(=NCCN1CCOCC1)=NC1CCCCC1", "TGI": "> 100"}, {"smiles": "NC(N)=N/N=C/c1c(-c2ccsc2)nc2sccn12", "GI50": 11.4, "TGI": 23.6}, {"smiles": "COC(=O)COc1ccccc1/C=C1\\N=C(c2ccccc2)N(c2cc(C(F)(F)F)ccc2Cl)C1=O", "GI50": "> 100", "TGI": "> 100"}, {"smiles": "CC(=O)OC1COC(Oc2c(C)c3c4c(c2O)[C@@H](C)CC[C@@H]4[C@@H](C)C[C@H]3C=C(C)C)C(O)C1OC(C)=O", "note": "(some centres undefined)", "GI50": 17.1, "TGI": 33.2}, {"smiles": "CO/N=C(/C)c1cccc(Nc2cc(-n3nnc4ccccc43)nc3ccccc23)c1", "GI50": 15, "TGI": 64.1}, {"smiles": "CN1CC(=O)N2Cc3ccccc3-n3cccc3C2C1", "note": "(centres undefined)", "TGI": "> 100"}, {"smiles": "NC(=S)N/N=C/C(=O)O", "GI50": "> 100", "TGI": "> 100"}, {"smiles": "Cc1ccc(SC2c3ccc(C)cc3Oc3nc(N)c(C#N)c(N)c32)cc1", "note": "(centres undefined)", "GI50": 6.77, "TGI": 19.5}, {"smiles": "CC/C=C\\C[C@H](O)C/C=C1/C(=O)C(Cl)=C[C@@H]1C/C=C\\CCCC(=O)OC", "GI50": 2.4, "TGI": 5.83}]}, {"system": "UACC-257 melanoma", "test": "NCI tumour cell line growth inhibition, 48 h", "units": {"GI50": "µM"}, "values": [{"smiles": "Clc1ccc2c(c1)[nH]c1c2nc2ccccn21", "TGI": "89.4 µM and 32.3 µM"}, {"smiles": "CCOC(=O)c1cnc2c(ccc3[nH]n(C)nc32)c1=O", "TGI": "> 100 µM"}, {"smiles": "NC(=S)N/N=C(\\CC1OC(=O)c2ccccc21)c1ccc(Cl)cc1", "note": "(centres undefined)", "TGI": "> 100 µM"}, {"smiles": "COc1ccc2occ(CCC(=O)O)c2c1", "TGI": "> 100 µM"}, {"smiles": "CC1(C)COC(C2(C)C(=O)C=C(c3ccccc3)c3ccccc32)=N1", "note": "(centres undefined)", "TGI": "> 100 µM"}, {"smiles": "O=C(Nc1ccn(CCO)c(=O)n1)c1ccccc1", "TGI": "> 100 µM"}, {"smiles": "C#CCOc1cccc(-c2ncc3cc(NC(=O)CCl)ccc3n2)c1", "GI50": 2.02, "TGI": "3.96 µM"}, {"smiles": "O=CCC1CCCCC1", "TGI": "> 100 µM"}, {"smiles": "CCC12CCCN(Cc3ccccc3)C1c1c(n(C)c3ccccc13)CC2", "note": "(centres undefined)", "TGI": "> 253 µM"}, {"smiles": "Cc1cc(Nc2ccc(NC(=O)c3ccc(Nc4ccnc5ccccc45)cc3)cc2)nc(N)n1", "GI50": 21.8, "TGI": "87.7 µM"}, {"smiles": "CNCc1ccccc1-c1csc([C@@H](C)Nc2nc(C)nc3cc(OC)c(OC)cc23)c1", "GI50": 1.82, "TGI": "3.51 µM"}, {"smiles": "Nc1nc(Cl)cc(NCCCCCCCCNc2cc(Cl)nc(N)n2)n1", "TGI": "> 100 µM"}, {"smiles": "CC(C)N(C(=O)C12C3C4C1C1C4(C#N)C3C12C#N)C(C)C", "note": "(centres undefined)", "TGI": "> 100 µM"}, {"smiles": "O=C1CCC(Cl)=CC2CCCN12", "note": "(centres undefined)", "TGI": "> 100 µM"}, {"smiles": "O=C(Nc1ccc2ncccc2c1)Nc1ccc2ncccc2c1", "TGI": "> 100 µM"}, {"smiles": "C(=NCCN1CCOCC1)=NC1CCCCC1", "TGI": "> 100 µM"}, {"smiles": "NC(N)=N/N=C/c1c(-c2ccsc2)nc2sccn12", "GI50": 22.3, "TGI": "41.1 µM"}, {"smiles": "CC(=O)OC1COC(Oc2c(C)c3c4c(c2O)[C@@H](C)CC[C@@H]4[C@@H](C)C[C@H]3C=C(C)C)C(O)C1OC(C)=O", "note": "(some centres undefined)", "GI50": 14.1, "TGI": "28.4 µM"}, {"smiles": "CO/N=C(/C)c1cccc(Nc2cc(-n3nnc4ccccc43)nc3ccccc23)c1", "GI50": 87.5, "TGI": "> 100 µM"}, {"smiles": "CN1CC(=O)N2Cc3ccccc3-n3cccc3C2C1", "note": "(centres undefined)", "TGI": "> 100 µM"}, {"smiles": "NC(=S)N/N=C/C(=O)O", "GI50": 30.1, "TGI": "> 100 µM"}, {"smiles": "Cc1ccc(SC2c3ccc(C)cc3Oc3nc(N)c(C#N)c(N)c32)cc1", "note": "(centres undefined)", "GI50": 1.8, "TGI": "3.22 µM"}]}, {"system": "UO-31 renal", "test": "NCI tumour cell line growth inhibition, 48 h", "units": {"GI50": "µM"}, "values": [{"smiles": "Clc1ccc2c(c1)[nH]c1c2nc2ccccn21", "TGI": "53.7 µM and 37.5 µM"}, {"smiles": "CCOC(=O)c1cnc2c(ccc3[nH]n(C)nc32)c1=O", "TGI": "> 100 µM"}, {"smiles": "NC(=S)N/N=C(\\CC1OC(=O)c2ccccc21)c1ccc(Cl)cc1", "note": "(centres undefined)", "TGI": "84.9 µM"}, {"smiles": "CC1(C)COC(C2(C)C(=O)C=C(c3ccccc3)c3ccccc32)=N1", "note": "(centres undefined)", "TGI": "98.6 µM"}, {"smiles": "O=C(Nc1ccn(CCO)c(=O)n1)c1ccccc1", "TGI": "> 100 µM"}, {"smiles": "C#CCOc1cccc(-c2ncc3cc(NC(=O)CCl)ccc3n2)c1", "GI50": 1.52, "TGI": "2.91 µM"}, {"smiles": "O=CCC1CCCCC1", "TGI": "> 100 µM"}, {"smiles": "CSc1nc(=O)n(CCC#N)nc1SC", "TGI": "> 100 µM"}, {"smiles": "Cc1cc(Nc2ccc(NC(=O)c3ccc(Nc4ccnc5ccccc45)cc3)cc2)nc(N)n1", "GI50": 50.9, "TGI": "> 100 µM"}, {"smiles": "COC(=O)C1c2cc3c(cc2C(OC2OC(C)C(OC)C(C)(OC)C2OC)CC1(C)O)C(=O)c1c(O)cc2c(c1C3=O)OC1OC2(C)C(O)C([N+](C)(C)[O-])C1O", "note": "(centres undefined)", "TGI": "5.7 µM"}, {"smiles": "CNCc1ccccc1-c1csc([C@@H](C)Nc2nc(C)nc3cc(OC)c(OC)cc23)c1", "GI50": 1.23, "TGI": "2.48 µM"}, {"smiles": "Nc1nc(Cl)cc(NCCCCCCCCNc2cc(Cl)nc(N)n2)n1", "TGI": "> 100 µM"}, {"smiles": "CC(C)N(C(=O)C12C3C4C1C1C4(C#N)C3C12C#N)C(C)C", "note": "(centres undefined)", "TGI": "> 100 µM"}, {"smiles": "O=C1CCC(Cl)=CC2CCCN12", "note": "(centres undefined)", "TGI": "> 100 µM"}, {"smiles": "O=C(Nc1ccc2ncccc2c1)Nc1ccc2ncccc2c1", "TGI": "> 100 µM"}, {"smiles": "CC(C)C(CCl)NC(=O)c1cccc(C(=O)N[C@H](CCl)C(C)C)n1", "note": "(stereo in doubt)", "TGI": "> 100 µM"}, {"smiles": "CCC(=O)CC(=O)CCC(=O)Nc1cc(C)ccc1C", "TGI": "> 100 µM"}, {"smiles": "C(=NCCN1CCOCC1)=NC1CCCCC1", "TGI": "> 100 µM"}, {"smiles": "NC(N)=N/N=C/c1c(-c2ccsc2)nc2sccn12", "GI50": 20, "TGI": "36.8 µM"}, {"smiles": "COC(=O)COc1ccccc1/C=C1\\N=C(c2ccccc2)N(c2cc(C(F)(F)F)ccc2Cl)C1=O", "GI50": 22.3, "TGI": "52.8 µM"}, {"smiles": "CC(=O)OC1COC(Oc2c(C)c3c4c(c2O)[C@@H](C)CC[C@@H]4[C@@H](C)C[C@H]3C=C(C)C)C(O)C1OC(C)=O", "note": "(some centres undefined)", "GI50": 17.3, "TGI": "40.9 µM"}, {"smiles": "CO/N=C(/C)c1cccc(Nc2cc(-n3nnc4ccccc43)nc3ccccc23)c1", "GI50": "> 100", "TGI": "> 100 µM"}, {"smiles": "CN1CC(=O)N2Cc3ccccc3-n3cccc3C2C1", "note": "(centres undefined)", "TGI": "> 100 µM"}, {"smiles": "NC(=S)N/N=C/C(=O)O", "GI50": "> 100", "TGI": "> 100 µM"}, {"smiles": "Cc1ccc(SC2c3ccc(C)cc3Oc3nc(N)c(C#N)c(N)c32)cc1", "note": "(centres undefined)", "GI50": 1.18, "TGI": "2.49 µM"}, {"smiles": "CC/C=C\\C[C@H](O)C/C=C1/C(=O)C(Cl)=C[C@@H]1C/C=C\\CCCC(=O)OC", "GI50": 0.413, "TGI": "1.29 µM"}]}]}
